Read-outs that look alike come from different tables or passages of the source.
Biological target: T1, human CCR6 (Homo sapiens, UniProt P51684)
T1 sequence (P51684 1-374): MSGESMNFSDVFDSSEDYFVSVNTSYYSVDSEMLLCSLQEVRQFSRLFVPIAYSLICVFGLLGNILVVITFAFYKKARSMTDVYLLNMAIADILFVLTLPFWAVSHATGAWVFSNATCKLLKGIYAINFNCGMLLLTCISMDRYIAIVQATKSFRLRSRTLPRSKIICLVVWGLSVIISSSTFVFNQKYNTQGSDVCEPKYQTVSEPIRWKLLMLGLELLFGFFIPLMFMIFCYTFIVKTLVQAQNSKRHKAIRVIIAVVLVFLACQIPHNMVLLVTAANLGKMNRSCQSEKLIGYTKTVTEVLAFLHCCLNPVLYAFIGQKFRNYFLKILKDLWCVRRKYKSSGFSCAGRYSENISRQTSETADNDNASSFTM
Assay: Human CCR6-CRE reporter assay
Format: cell-based
Design: The second construct contained the open reading frame of human CCR6 in the pUNO1 backbone; host or cells: 293FT cells (transient transfection with TransIT-293)
Method: 293FT cells were transfected with 2 constructs using TransIT-293 (Mirus). The first construct (pGL4.29, Promega) expressed the luciferase reporter gene luc2P in response to the binding of cAMP-induced CREB to the CREelement in its promoter. The second construct contained the open reading frame of human CCR6 in the pUNO1 backbone under the control of an enhanced CMV promoter(InVivoGen).48 h after transfection, cells were harvested and diluted to 750,000 cells/ml in culture medium (DMEM, 10% FBS, 1× pen/strep(Gibco 15140)). Compounds were 2.5-fold serially diluted in DMSO. Further dilutions were made in assay medium (DMEM, 10% FBS, 1× pen/strep, 6 μM Forskolin, 6 nM CCL20). 4 μl of the compound solution was added to a white MW384 plate, followed by […] of the cell suspension. Final DMSO concentration in the assay was 0.1%. The MW384 plate was placed in an incubator at 37° C., 5% CO2 for 5 h. Luciferase activity was determined by addition of 24 μl of a 2.5× diluted BriteLite luciferase solution(Perkin Elmer), followed by luminescence measurement using a VICTOR Plate reader (Perkin Elmer). […] The relative Log IC50 was determined with GraphPad Prism 9 using a four-parameter dose-response model.

[1] = 293FT cells transfected with human CCR6 and CRE-luciferase, Forskolin + CCL20, 5 h, relative Log IC50, read-out: CCR6-CRE reporter (converted)
[2] = scaffold variant X = O, R1 = CF3, read-out: Activity in human CCR6-CRE reporter assay

SMILES | IC50 [1] | IC50 [2]
N#Cc1ccc(-c2ccc(S(=O)(=O)N3CCC(Nc4cccc(OC(F)F)c4)CC3)cc2)cc1 [Example 2, 4′-[(4-{[3-(difluoromethoxy)phenyl]Amino}piperidin-1-yl)sulfonyl]-[1,1′-biphenyl]-4-carbonitrile] | 398 nM | –
NC(=O)c1cccc(-c2ccc(S(=O)(=O)N3CCC(Nc4ccc(OC(F)(F)F)cc4)CC3)cc2)c1 [Example 5, 4′-[(4-{[4-(trifluoromethoxy)phenyl]Amino}piperidin-1-yl)sulfonyl]-[1,1′-biphenyl]-3-carboxamide] | 126 nM | –
N#Cc1ccc(-c2ccc(S(=O)(=O)N3CCC(Nc4ccc(OC(F)(F)F)cn4)CC3)cc2)cc1 [Example 7, 4′-[(4-{[5-(trifluoromethoxy)pyridin-2-yl]Amino}piperidin-1-yl)sulfonyl]-[1,1′-biphenyl]-4-carbonitrile] | 200 nM | –
NC(=O)c1cccc(-c2ccc(S(=O)(=O)N3CCC(Nc4ccc(OC(F)(F)F)cn4)CC3)cc2)c1 [Example 9, 4′-[(4-{[5-(trifluoromethoxy)pyridin-2-yl]Amino}piperidin-1-yl)sulfonyl]-[1,1′-biphenyl]-3-carboxamide] | 79.4 nM | –
O=C1NCc2ccc(-c3ccc(S(=O)(=O)N4CCC(Nc5cccc(OC(F)(F)F)c5)CC4)cc3)cc21 [Example 10, 6-{4-[(4-{[3-(trifluoromethoxy)phenyl]Amino}piperidin-1-yl)sulfonyl]phenyl}-2,3-dihydro-1H-isoindol-1-one] | 3160 nM | –
O=S(=O)(c1ccc(-c2ccc3nccn3c2)cc1)N1CCC(Nc2ccc(OC(F)(F)F)cn2)CC1 [Example 12, N-[1-(4-{imidazo[1,2-a]pyridin-6-yl}benzenesulfonyl)piperidin-4-yl]-5-(trifluoromethoxy)pyridin-2-amine] | – | 150 nM
Cc1cnc2ccc(-c3ccc(S(=O)(=O)N4CCC(Nc5ccc(OC(F)(F)F)cc5)CC4)cc3)cn12 [Example 16, 1-(4-{3-methylimidazo[1,2-a]pyridin-6-yl}benzenesulfonyl)-N-[4-(trifluoromethoxy)phenyl]piperidin-4-amine] | 79.4 nM | –
COCc1nnc2ccc(-c3ccc(S(=O)(=O)N4CCC(Nc5ccc(OC(F)(F)F)cc5)CC4)cc3)cn12 [Example 22, 1-{4-[3-(methoxymethyl)-[1,2,4]triazolo[4,3-a]pyridin-6-yl]benzenesulfonyl}-N-[4-(trifluoromethoxy)phenyl]piperidin-4-amine] | 251 nM | –
O=S(=O)(c1ccc(-c2ccccc2)cc1)N1CCC(Nc2ccc(OC(F)(F)F)cc2)CC1 [Example 25, 1-{[1,1′-biphenyl]-4-sulfonyl}-N-[4-(trifluoromethoxy)phenyl]piperidin-4-amine] | 631 nM | 1100 nM
O=S(=O)(c1ccc(-c2ccccc2)cc1)N1CCC(Nc2ccc(OC(F)F)cc2)CC1 [Example 26, 1-{[1,1′-biphenyl]-4-sulfonyl}-N-[4-(difluoromethoxy)phenyl]piperidin-4-amine] | 501 nM | –
Cc1n[nH]c2ccc(-c3ccc(S(=O)(=O)N4CCC(Nc5ccc(OC(F)F)cc5)CC4)cc3)cc12 [Example 27, N-[4-(difluoromethoxy)phenyl]-1-[4-(3-methyl-1H-indazol-5-yl)benzenesulfonyl]piperidin-4-amine] | 200 nM | –
CC(C)c1cnc2ccc(-c3ccc(S(=O)(=O)N4CCC(Nc5ccc(SC(F)(F)F)cc5)CC4)cc3)cn12 [Example 31, 1-{4-[3-(propan-2-yl)imidazo[1,2-a]pyridin-6-yl]benzenesulfonyl}-N-{4-[(trifluoromethyl)sulfanyl]phenyl}piperidin-4-amine] | 50.1 nM | –
NC(=O)c1cc(-c2ccc(S(=O)(=O)N3CCC(Nc4ccc(SC(F)(F)F)cc4)CC3)cc2)ccn1 [Example 34, 4-(4-{[4-({4-[(trifluoromethyl)sulfanyl]phenyl}Amino)piperidin-1-yl]sulfonyl}phenyl)pyridine-2-carboxamide] | 63.1 nM | –
CC1CC(Nc2ccc(OC(F)(F)F)cc2)CCN1S(=O)(=O)c1ccc(-c2ccccc2)cc1 (stereo not shown) [Example 35, 1-{[1,1′-biphenyl]-4-sulfonyl}-2-methyl-N-[4-(trifluoromethoxy)phenyl]piperidin-4-amine] | 2510 nM | –
CC1CC(Nc2ccc(OC(F)(F)F)cc2)CCN1S(=O)(=O)c1ccc(-c2ccc(C#N)cc2)cc1 (stereo not shown) [Example 36, 4′-[(2-methyl-4-{[4-(trifluoromethoxy)phenyl]Amino}piperidin-1-yl)sulfonyl]-[1,1′-biphenyl]-4-carbonitrile] | 398 nM | –
CC1CC(Nc2ccc(OC(F)(F)F)cc2)CCN1S(=O)(=O)c1ccc(-c2ccc3c(c2)C(=O)NC3)cc1 (stereo not shown) [Example 37, 6-{4-[(2-methyl-4-{[4-(trifluoromethoxy)phenyl]Amino}piperidin-1-yl)sulfonyl]phenyl}-2,3-dihydro-1H-isoindol-1-one] | 251 nM | –
CNC(=O)c1cccc(-c2ccc(S(=O)(=O)N3CCC(Nc4ccc(OC(F)(F)F)cc4)CC3C)cc2)c1 (stereo not shown) [Example 38, N-methyl-4′-[(2-methyl-4-{[4-(trifluoromethoxy)phenyl]Amino}piperidin-1-yl)sulfonyl]-[1,1′-biphenyl]-3-carboxamide] | 126 nM | –
N#Cc1ccc(-c2ccc(S(=O)(=O)[C@H]3CC[C@H](Nc4ccc(OC(F)(F)F)cc4)CC3)cc2)cc1 [Example 39, 4′-{[trans-4-{[4-(trifluoromethoxy)phenyl]Amino}cyclohexyl]sulfonyl}-[1,1′-biphenyl]-4-carbonitrile] | 100 nM | –
N#Cc1ccc(-c2ccc(S(=O)(=O)[C@H]3CC[C@H](Nc4cccc(OC(F)(F)F)c4)CC3)cc2)cc1 [Example 40, 4′-{[trans-4-{[3-(trifluoromethoxy)phenyl]Amino}cyclohexyl]sulfonyl}-[1,1′-biphenyl]-4-carbonitrile] | 398 nM | –
O=S(=O)(c1ccc(-c2ccc3nccn3c2)cc1)[C@H]1CC[C@H](Nc2ccc(SC(F)(F)F)cc2)CC1 [Example 45, N-[trans-4-(4-{imidazo[1,2-a]pyridin-6-yl}benzenesulfonyl)cyclohexyl]-4-[(trifluoromethyl)sulfanyl]aniline] | 79.4 nM | –
CC(C)c1cnc2ccc(-c3ccc(S(=O)(=O)[C@H]4CC[C@H](Nc5cccc(SC(F)(F)F)c5)CC4)cc3)cn12 [Example 47, N-[trans-4-{4-[3-(propan-2-yl)imidazo[1,2-a]pyridin-6-yl]benzenesulfonyl}cyclohexyl]-3-[(trifluoromethyl)sulfanyl]aniline] | 100 nM | –
Cc1cc(-c2ccc(S(=O)(=O)[C@H]3CC[C@H](Nc4ccc(SC(F)(F)F)cc4)CC3)cc2)cn2c(C(C)C)cnc12 [Example 48, N-[trans-4-{4-[8-methyl-3-(propan-2-yl)imidazo[1,2-a]pyridin-6-yl]benzenesulfonyl}cyclohexyl]-4-[(trifluoromethyl)sulfanyl]aniline] | 79.4 nM | –
NC(=O)c1cc(-c2ccc(S(=O)(=O)[C@H]3CC[C@H](Nc4ccc(SC(F)(F)F)cc4)CC3)cc2)ccn1 [Example 49, 4-(4-{[trans-4-({4-[(trifluoromethyl)sulfanyl]phenyl}Amino)cyclohexyl]sulfonyl}phenyl)pyridine-2-carboxamide] | 63.1 nM | –
O=c1[nH]nc2ccc(-c3ccc(S(=O)(=O)[C@H]4CC[C@H](Nc5ccc(SC(F)(F)F)cc5)CC4)cc3)cn12 [Example 50, 6-(4-{[trans-4-({4-[(trifluoromethyl)sulfanyl]phenyl}Amino)cyclohexyl]sulfonyl}phenyl)-2H,3H-[1,2,4]triazolo[4,3-a]pyridin-3-one] | 79.4 nM | –

— patent publication US20250353859A1, “COMPOUNDS AS CCR6 INHIBITORS” (Hoffmann-La Roche Inc., priority 2023, published 2025)
